One series has as its system maize suspension. In words: Single cell production from chlorophyllous maize cell cultures. It counts as cell-based. The text has this:
The maize photoautotrophi cultures were initiated and maintained in 7 day culture cycles (Jayakumar et. al. 2005). […] The maize suspension units are tightly packed into hard cell aggregates when compared to the dicot cells analyzed.

The test system of the next series is soybean suspension cells. The settings on record: cited from earlier work.
The next series deals with JM cells. Nature of the series: Effects of colchicine on growth and cell separation of Jimson weed suspension cells. It is filed as cell-based. The text has this:
BY2 suspension-cultured cells were obtained from Japan tobacco and maintained in LSBY2 medium in a 7 day cycle. Jimsonweed suspension and Pettite Havana tobacco suspensions were initiated from callus initiated at DAS and Xanthi suspensions were procured as a sample from Professor Jack Widholm from UIUC, IL. JT-NT1 suspension cells, obtained from Washington University that are maintained in NT1B medium in 7 day cycle were used only for the pectin degradation enzyme study to separate the cells into single cells. The cells were cultured in shake flasks at 25-28° C. in dark on orbital shakers at 150 rpm. […] Stock concentrations of both the tubulin polymerization inhibitors used in this investigation were dissolved in DMSO to prepare a 0.5 M stock solution. The concentration tested for the pectinase and pectolyase enzymes were in the range of 0.0005% to 0.005%. The tobacco suspension cell lines NT-1 and BY-2, for example, are suitable for the practice of the present invention. […] The NT-1 cell line is widely used and readily available; though, any tobacco suspension cell line is consistent with the practice of the invention. […]
Cell expansion and separation were observed by light microscopy (with Nomarski and dark field optics). Spherical cells and single cells were counted by using a hemacytometer to determine the degree of cell expansion and separation, respectively. Cell numbers in aggregates were determined by treating with 5% (wt/vol) chromium trioxide for 16 hr and counting cells (Henshaw et. al, 1966). Cell viability was determined by staining cells (Yokoyama et. al, 1997) with fluorescein diacetate (FDA) and propidium iodide (PI) using a fluorescent microscope (Zeiss Photomicroscope). […] Calcafluor obtained from Sigma, which is a specific fluorescent dye for cellulose is used in this study, and the cellulose-Calcafluor complexing was observed by fluorescence microscopy (Zeiss Photomicroscope). […]

Another series concerns Tobacco BY2 suspension. In words: BY2 single cell production with diphenylpyrazole. It counts as cell-based. On the procedure:
Production of GFP expressing single cells. Single cells were produced by adding 1 uM concentration of the compound DDP (diphenylpyrazole) during the initiation of the 7 d culture cycle in the LSBY2-Gly-B15 medium along with the addition of 0.5 ml Pack Cell Volume (PCV) of GFP expressing suspension aggregates at the stationary phase. Alternately, a 25-ml of suspension aggregates were transferred to a 25-ml of fresh LSBY2-Gly-B15 suspension medium by adding 50 ul of […] diphenylpyrazole stock solution dissolved in DMSO to provide a 1 uM final concentration in the suspension. Thus single cells could be produced in a much shorter cycle of only 3.5 days. The LSBY215 medium always contain 15 mg/l glufosinate ammonium for selection
Initiation of single cells in preparation for plastid transformation. Four milliliters of Tobacco BY2 suspension (at the stationary phase growth maintained on a 7-d cycle) was added to 26 mL of fresh medium that composed of either Medium A [LS salts (PhytoTechnology Laboratories, L689), 120 g/L sucrose, 1 mg/L nicotinic acid, 1 mg/L pyridoxine HCl, 10 mg/L thiamine HCl, and 20 nM diphenylpyrazole (DPP)] or Medium B [LS salts, 120 g/L sucrose, 1 mg/L nicotinic acid, 1 mg/L pyridoxine HCl, 10 mg/L thiamine HCl, 2.5 mg/L benzylaminopurine (BAP) and 20 nM DPP] contained in a 125 mL shake flask with a foam stopper. […]

Take `COc1cc2c(c(OC)c1OC)-c1ccc(OC)c(=O)cc1[C@@H](NC(C)=O)CC2` [Colchicine]: in the series on maize suspension, the “concentration at which active in releasing single cells” value is given as “above 0.5 mM”. Moreover, the viable cells in the series with soybean suspension cells (1 mM colchicine) is on record as 44.8%. In the series on soybean suspension cells, the “concentration in culture medium for cell separation” value was 0.1 to 1.0 mM. For the same molecule, in the series on JM cells (0.5 mM), the cell growth result is listed as “drastically affected”. Also, the “cell viability (FDA and PI)” value in the series with JM cells (1 mM, 7 d) was “high viability”. In addition, the single suspension cells entry in the series with JM cells (1 mM, 7 days) is listed as “high degree of single suspension cells”.

For `CCOC(=O)COc1nn(-c2ccccc2)c(-c2ccccc2)c1Cl` [DAS-PMTI-1], the single cell production entry with Tobacco BY2 suspension (20 nM, Medium A and Medium B, 7 days) was “produced single cells”. The “cells with single nucleus with one or two nucleoli” value in the series with Tobacco BY2 suspension (1 uM, 3.5 days of culture, LSBY2 Glycerol medium) is 90%.

(Values after patent US8206983B2, “In vitro methods for the induction and maintenance of plant cell lines as single suspension cells with intact cell walls” (Dow AgroSciences, LLC., priority 2006, dated 2012).)
